Assay results published in ChEMBL document CHEMBL3286119, “Biarylmethoxy Nicotinamides As Novel and Specific Inhibitors of Mycobacterium tuberculosis” (ACS Med Chem Lett, 2014).
In brackets after ≈: the same amount, converted by molar mass. Activity calls are given as the source filed them. The calls are words filed in the database; no cut-off is given here.

Tests used:
[1] = Cytotoxicity against human THP1 cells after 24 hrs by resazurin assay; assay type: cell-based, THP-1; conditions: read-out: MIC
[2] = system: Mycobacterium tuberculosis; experiment: Antimicrobial activity against Mycobacterium tuberculosis H37Rv ATCC 27294 after 5 days by microdilution method; assay type: functional; conditions: H37Rv ATCC 27294, 120 h
[3] = system: Mycobacterium tuberculosis; experiment: Antimicrobial activity against Mycobacterium tuberculosis DKU211 clinical isolate after 2 to 3 weeks; assay type: functional, organism-based
Escherichia coli [4] = experiment: Antimicrobial activity against Escherichia coli ARC523 after 5 days by microdilution method; assay type: functional; conditions: ARC523, 120 h
[5] = system: Mycobacterium tuberculosis; experiment: Antimicrobial activity against Mycobacterium tuberculosis Harlingen after 2 to 3 weeks; assay type: functional, organism-based
Streptococcus pneumoniae = experiment: Antimicrobial activity against Streptococcus pneumoniae ARC548 after 5 days by microdilution method; assay type: functional; conditions: ARC548, 120 h
[6] = system: Mycobacterium tuberculosis; experiment: Antimicrobial activity against Mycobacterium tuberculosis ATCC 25618 after 2 to 3 weeks; assay type: functional, organism-based
Escherichia coli [7] = experiment: Antimicrobial activity against Escherichia coli ARC524 after 5 days by microdilution method; assay type: functional; conditions: ARC524, 120 h
[8] = system: Mycobacterium tuberculosis; experiment: Antimicrobial activity against Mycobacterium tuberculosis Erdman after 2 to 3 weeks; assay type: functional, organism-based
[9] = Lipophilicity, log D of the compound; assay type: physicochemical; conditions: octanol/water
[10] = system: Mycobacterium tuberculosis; experiment: Antimicrobial activity against Mycobacterium tuberculosis 97A clinical isolate after 2 to 3 weeks; assay type: functional, organism-based
Streptococcus pyogenes = experiment: Antimicrobial activity against Streptococcus pyogenes after 5 days by microdilution method; assay type: functional; conditions: 120 h
Candida albicans = experiment: Antimicrobial activity against Candida albicans ARC526 after 5 days by microdilution method; assay type: functional; conditions: ARC526, 120 h
[11] = system: Mycobacterium tuberculosis; experiment: Antimicrobial activity against Mycobacterium tuberculosis DKU 76 clinical isolate after 2 to 3 weeks; assay type: functional, organism-based
[12] = system: Mycobacterium tuberculosis; experiment: Antimicrobial activity against Mycobacterium tuberculosis Beijing after 2 to 3 weeks; assay type: functional, organism-based
[13] = system: Mycobacterium tuberculosis; experiment: Antimicrobial activity against Mycobacterium tuberculosis JALMA clinical isolate after 2 to 3 weeks; assay type: functional, organism-based
Cytochrome P450 2C19 = Cytochrome P450 2C19 (Homo sapiens, UniProt P33261); experiment: Inhibition of CYP2C19 (unknown origin); assay type: ADME
Chain of Cytochrome P450 2C19 (P33261 whole entry): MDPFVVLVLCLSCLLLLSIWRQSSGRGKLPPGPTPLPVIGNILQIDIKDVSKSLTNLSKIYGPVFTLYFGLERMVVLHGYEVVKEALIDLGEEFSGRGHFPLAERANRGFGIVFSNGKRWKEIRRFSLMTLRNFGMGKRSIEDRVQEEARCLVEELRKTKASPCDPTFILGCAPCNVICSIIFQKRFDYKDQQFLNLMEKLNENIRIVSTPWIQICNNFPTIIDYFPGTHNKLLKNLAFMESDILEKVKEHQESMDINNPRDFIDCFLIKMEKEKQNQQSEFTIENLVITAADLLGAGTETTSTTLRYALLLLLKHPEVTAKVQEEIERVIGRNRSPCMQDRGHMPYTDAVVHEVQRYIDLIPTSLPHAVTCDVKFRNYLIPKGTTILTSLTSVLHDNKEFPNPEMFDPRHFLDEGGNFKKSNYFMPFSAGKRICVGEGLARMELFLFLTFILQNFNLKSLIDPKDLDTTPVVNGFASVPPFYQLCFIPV

Pseudomonas aeruginosa [14] = experiment: Antimicrobial activity against Pseudomonas aeruginosa ARC545 after 5 days by microdilution method; assay type: functional; conditions: ARC545, 120 h
Haemophilus influenzae [15] = experiment: Antimicrobial activity against Haemophilus influenzae ARC158 after 5 days by microdilution method; assay type: functional; conditions: ARC158, 120 h
Haemophilus influenzae [16] = experiment: Antimicrobial activity against Haemophilus influenzae ARC446 after 5 days by microdilution method; assay type: functional; conditions: ARC446, 120 h
Staphylococcus aureus = experiment: Antimicrobial activity against Staphylococcus aureus ARC517 after 5 days by microdilution method; assay type: functional; conditions: ARC517, 120 h
[17] = system: Mycobacterium tuberculosis; experiment: Antimicrobial activity against ofloxacin Mycobacterium tuberculosis 12119 after 2 to 3 weeks; assay type: functional, organism-based
Klebsiella pneumoniae = experiment: Antimicrobial activity against Klebsiella pneumoniae ARC1865 after 5 days by microdilution method; assay type: functional; conditions: ARC1865, 120 h
Pseudomonas aeruginosa [18] = experiment: Antimicrobial activity against Pseudomonas aeruginosa ARC546 after 5 days by microdilution method; assay type: functional; conditions: ARC546, 120 h
[19] = system: Mycobacterium tuberculosis; experiment: Antimicrobial activity against Mycobacterium tuberculosis ATCC 35811 after 2 to 3 weeks; assay type: functional, organism-based
[20] = system: Mycobacterium tuberculosis; experiment: Antimicrobial activity against Mycobacterium tuberculosis DKU220 clinical isolate after 2 to 3 weeks; assay type: functional, organism-based
Cytochrome P450 2D6 = Cytochrome P450 2D6 (Homo sapiens, UniProt P10635); experiment: Inhibition of CYP2D6 (unknown origin); assay type: ADME
Chain of Cytochrome P450 2D6 (P10635 whole entry): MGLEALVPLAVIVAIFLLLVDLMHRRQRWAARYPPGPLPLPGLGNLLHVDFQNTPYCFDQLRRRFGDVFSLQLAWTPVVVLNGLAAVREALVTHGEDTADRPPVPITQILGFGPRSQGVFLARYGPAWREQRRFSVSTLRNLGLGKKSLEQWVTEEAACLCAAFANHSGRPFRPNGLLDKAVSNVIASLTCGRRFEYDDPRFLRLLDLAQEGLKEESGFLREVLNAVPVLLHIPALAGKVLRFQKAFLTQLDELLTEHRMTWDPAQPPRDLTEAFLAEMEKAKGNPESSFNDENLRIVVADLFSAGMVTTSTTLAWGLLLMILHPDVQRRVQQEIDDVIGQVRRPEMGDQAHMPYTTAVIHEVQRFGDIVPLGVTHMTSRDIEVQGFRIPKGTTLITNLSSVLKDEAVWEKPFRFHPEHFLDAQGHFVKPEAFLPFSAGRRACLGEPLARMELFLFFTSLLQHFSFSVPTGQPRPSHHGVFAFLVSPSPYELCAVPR

Cytochrome P450 3A4 = Cytochrome P450 3A4 (Homo sapiens, UniProt P08684); experiment: Inhibition of CYP3A4 (unknown origin); assay type: ADME
Chain of Cytochrome P450 3A4 (P08684 whole entry): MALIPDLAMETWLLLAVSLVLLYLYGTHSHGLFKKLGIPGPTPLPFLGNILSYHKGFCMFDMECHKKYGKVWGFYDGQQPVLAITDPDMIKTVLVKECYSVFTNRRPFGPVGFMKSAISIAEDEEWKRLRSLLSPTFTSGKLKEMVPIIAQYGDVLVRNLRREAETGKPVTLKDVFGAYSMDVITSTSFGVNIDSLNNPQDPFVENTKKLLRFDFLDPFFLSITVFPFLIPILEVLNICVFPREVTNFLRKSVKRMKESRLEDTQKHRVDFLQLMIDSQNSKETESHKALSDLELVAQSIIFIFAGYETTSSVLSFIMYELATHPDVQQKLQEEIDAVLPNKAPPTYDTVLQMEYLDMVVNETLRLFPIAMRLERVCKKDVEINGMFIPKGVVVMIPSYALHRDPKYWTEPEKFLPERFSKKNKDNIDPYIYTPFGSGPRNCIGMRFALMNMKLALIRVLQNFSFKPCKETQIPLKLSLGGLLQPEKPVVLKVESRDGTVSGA

[21] = Fraction unbound in human plasma; assay type: ADME, cell-free
Cytochrome P450 1A2 = target: T1, Cytochrome P450 1A2 (Homo sapiens, UniProt P05177); experiment: Inhibition of CYP1A2 (unknown origin); assay type: ADME
T1 sequence (P05177 whole entry): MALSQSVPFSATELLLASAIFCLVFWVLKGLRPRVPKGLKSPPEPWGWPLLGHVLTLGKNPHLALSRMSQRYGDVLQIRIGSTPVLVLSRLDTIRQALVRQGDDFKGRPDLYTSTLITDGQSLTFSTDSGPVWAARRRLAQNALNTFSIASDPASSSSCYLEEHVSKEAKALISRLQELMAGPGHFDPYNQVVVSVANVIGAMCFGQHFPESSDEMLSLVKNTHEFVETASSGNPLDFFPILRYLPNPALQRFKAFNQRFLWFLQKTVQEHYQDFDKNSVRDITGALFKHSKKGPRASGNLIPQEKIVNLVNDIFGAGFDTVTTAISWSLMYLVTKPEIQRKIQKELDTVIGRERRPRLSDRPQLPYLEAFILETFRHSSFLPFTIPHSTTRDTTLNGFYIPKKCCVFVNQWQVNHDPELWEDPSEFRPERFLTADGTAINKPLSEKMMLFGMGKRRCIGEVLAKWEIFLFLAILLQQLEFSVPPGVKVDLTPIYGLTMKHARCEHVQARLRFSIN

Cytochrome P450 2C9 = Cytochrome P450 2C9 (Homo sapiens, UniProt P11712); experiment: Inhibition of CYP2C9 (unknown origin); assay type: ADME
Chain of Cytochrome P450 2C9 (P11712 whole entry): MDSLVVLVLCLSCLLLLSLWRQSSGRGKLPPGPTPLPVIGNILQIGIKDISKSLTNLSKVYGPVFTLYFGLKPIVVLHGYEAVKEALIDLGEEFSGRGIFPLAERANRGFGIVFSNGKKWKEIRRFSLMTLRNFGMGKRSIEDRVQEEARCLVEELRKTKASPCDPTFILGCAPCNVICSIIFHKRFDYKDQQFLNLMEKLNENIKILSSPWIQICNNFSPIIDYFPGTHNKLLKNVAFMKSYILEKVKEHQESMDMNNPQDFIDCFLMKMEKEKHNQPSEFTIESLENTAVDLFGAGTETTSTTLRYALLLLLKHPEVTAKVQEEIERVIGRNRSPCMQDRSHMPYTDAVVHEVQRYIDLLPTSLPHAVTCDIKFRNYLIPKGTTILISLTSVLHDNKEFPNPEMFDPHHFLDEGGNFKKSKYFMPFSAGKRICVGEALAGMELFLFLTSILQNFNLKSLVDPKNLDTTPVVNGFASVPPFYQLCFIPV

[22] = Selectivity index, ratio of MIC for human THP1 cells to MIC for Mycobacterium tuberculosis H37Rv ATCC 27294; assay type: toxicity, cell-based, THP-1; conditions: read-out: Selectivity Index

Cn1ccnc1-c1ccc(COc2ncccc2C(N)=O)cc1
MCC at 24 h [1]: > 50 µM
MIC [2]: > 100 µM

COCCOc1ccc(-c2ccc(COc3ncccc3C(=O)N3CCC(O)C3)nc2)c(C)c1 (stereo not drawn)
MCC at 24 h [1]: > 50 µM
MIC [2]: > 75 µM

COCCOc1ccc(-c2ccc(COc3ncccc3C(=O)N(C)C)nc2)c(C)c1
MCC at 24 h [1]: > 50 µM
MIC [2]: > 75 µM

COCCOc1ccc(-c2ccc(COc3nccc(OC)c3C(N)=O)nc2)c(C)c1
MCC at 24 h [1]: > 50 µM
MIC [2]: 6.2 µM (≈ 2.63 µg/mL)

COc1ccc(-c2ccc(COc3ncccc3C(N)=O)nc2)c(C)c1
MCC at 24 h [1]: > 50 µM
MIC [2]: 22 µM (≈ 7.69 µg/mL)

NC(=O)c1cccnc1OCc1ncc(-c2ccc(OCCCF)cc2Cl)cn1
Activity [3]: Active
MIC80 (Escherichia coli [4]): > 60 µM
Activity [5]: Active
MCC at 24 h [1]: > 250 µM
MIC [2]: 0.12 µM (≈ 0.05 µg/mL)
MIC80 (Streptococcus pneumoniae): > 60 µM
Activity [6]: Active
MIC80 (Escherichia coli [7]): > 60 µM
Activity [8]: Active
logD [9]: 2.8
Activity [10]: Active
MIC80 (Streptococcus pyogenes): > 60 µM
MIC80 (Candida albicans): > 60 µM
Activity [11]: Active
Activity [12]: Active
Activity [13]: Active
IC50 (Cytochrome P450 2C19): 18 µM
MIC (Pseudomonas aeruginosa [14]): > 60 µM
MIC80 (Haemophilus influenzae [15]): > 60 µM
MIC80 (Haemophilus influenzae [16]): > 60 µM
MIC80 (Staphylococcus aureus): > 60 µM
Activity [17]: Active
MIC80 (Klebsiella pneumoniae): > 60 µM
MIC80 (Pseudomonas aeruginosa [18]): > 60 µM
Activity [19]: Active
Activity [20]: Active

COCCOc1ccc(-c2cnc(COc3ncccc3C(N)=O)nc2)c(C)c1
MIC80 (Escherichia coli [4]): > 60 µM
MCC at 24 h [1]: > 50 µM
MIC [2]: 1.5 µM (≈ 0.592 µg/mL)
MIC80 (Streptococcus pneumoniae): > 60 µM
MIC80 (Escherichia coli [7]): > 60 µM
MIC80 (Streptococcus pyogenes): > 60 µM
MIC80 (Candida albicans): > 60 µM
MIC (Pseudomonas aeruginosa [14]): > 60 µM
MIC80 (Haemophilus influenzae [15]): > 60 µM
MIC80 (Haemophilus influenzae [16]): > 60 µM
MIC80 (Staphylococcus aureus): > 60 µM
MIC80 (Klebsiella pneumoniae): > 60 µM
MIC80 (Pseudomonas aeruginosa [18]): > 60 µM

Cc1cc(OCCN2CCOCC2)ccc1-c1ccc(COc2ncccc2C(N)=O)nc1
MCC at 24 h [1]: > 50 µM
MIC [2]: 8.9 µM (≈ 3.99 µg/mL)

Cc1cc(OC[C@H]2CCCO2)ccc1-c1ccc(COc2ncccc2C(N)=O)nc1
MCC at 24 h [1]: > 50 µM
MIC [2]: 4.7 µM (≈ 1.97 µg/mL)

CNC(=O)c1cccnc1OCc1ccc(-c2ccc(OCCOC)cc2C)cn1
MCC at 24 h [1]: > 50 µM
MIC [2]: 1.2 µM (≈ 0.489 µg/mL)

COCCOc1ccc(-c2ccc(COc3ncccc3C(N)=O)nc2)c(C)c1
Activity [3]: Active
Activity [5]: Active
inhibition (INH) (Cytochrome P450 2D6): Not Active
MCC at 24 h [1]: > 50 µM
MIC [2]: 0.6 µM (≈ 0.236 µg/mL)
Activity [6]: Active
Activity [8]: Active
logD [9]: 2.8
Activity [10]: Active
Activity [11]: Active
Activity [12]: Active
Activity [13]: Active
inhibition (INH) (Cytochrome P450 3A4): Not Active
fraction unbound [21]: 0.042
Activity [17]: Active
Activity [19]: Active
Activity [20]: Active
inhibition (INH) (Cytochrome P450 1A2): Not Active

CNS(=O)(=O)c1cccnc1OCc1ccc(-c2ccc(OCCOC)cc2C)cn1
MCC at 24 h [1]: > 50 µM
MIC [2]: 50 µM (≈ 22.2 µg/mL)

CC(C)OCCOc1ccc(-c2cnc(COc3ncccc3C(N)=O)nc2)c(Cl)c1
IC50 (Cytochrome P450 2C9): 19 µM
Activity [3]: Active
MIC80 (Escherichia coli [4]): > 60 µM
Activity [5]: Active
MCC at 24 h [1]: > 250 µM
MIC [2]: 0.12 µM (≈ 0.0531 µg/mL)
MIC80 (Streptococcus pneumoniae): > 60 µM
Activity [6]: Active
MIC80 (Escherichia coli [7]): > 60 µM
Activity [8]: Active
logD [9]: 2.8
Activity [10]: Active
MIC80 (Streptococcus pyogenes): > 60 µM
MIC80 (Candida albicans): > 60 µM
Activity [11]: Active
selectivity ratio [22]: > 2500
Activity [12]: Active
Activity [13]: Active
MIC (Pseudomonas aeruginosa [14]): > 60 µM
MIC80 (Haemophilus influenzae [15]): > 60 µM
MIC80 (Haemophilus influenzae [16]): > 60 µM
MIC80 (Staphylococcus aureus): > 60 µM
Activity [17]: Active
MIC80 (Klebsiella pneumoniae): > 60 µM
MIC80 (Pseudomonas aeruginosa [18]): > 60 µM
Activity [19]: Active
Activity [20]: Active

Cc1cc(OC[C@@H]2CCCO2)ccc1-c1ccc(COc2ncccc2C(N)=O)nc1
MCC at 24 h [1]: > 50 µM
MIC [2]: 1.2 µM (≈ 0.503 µg/mL)

COc1ccc(-c2ccc(COc3ncccc3C(N)=O)nc2)c(Cl)c1
MCC at 24 h [1]: > 50 µM
MIC [2]: 5.4 µM (≈ 2 µg/mL)

COCCOc1ccc(-c2ccc(COc3nccnc3C(N)=O)nc2)c(C)c1
MCC at 24 h [1]: > 50 µM
MIC [2]: 40.5 µM (≈ 16 µg/mL)

COc1ccc(-c2ccc(COc3ncccc3C(N)=O)cc2)c(C)n1
MCC at 24 h [1]: > 50 µM
MIC [2]: > 100 µM

Cc1cc(OCC2CCCO2)ccc1-c1ccc(COc2ncccc2C(N)=O)nc1 (stereo not drawn)
MCC at 24 h [1]: > 50 µM
MIC [2]: 4.7 µM (≈ 1.97 µg/mL)
logD [9]: 2.8

COCCOc1ccc(-c2cnc(COc3ncccc3C(N)=O)nc2)c(Cl)c1
MCC at 24 h [1]: > 250 µM
MIC [2]: 0.47 µM (≈ 0.195 µg/mL)

COCCOc1ccc(-c2ccc(COc3ncccc3C(=O)NC3CCN(C)CC3)nc2)c(C)c1
MCC at 24 h [1]: > 50 µM
MIC [2]: 8.1 µM (≈ 3.97 µg/mL)

CCN(CC)CCOc1ccc(-c2ccc(COc3ncccc3C(N)=O)nc2)c(C)c1
MIC [2]: > 100 µM

COc1ccc(-c2ccc(COc3ncccc3C(N)=O)nc2)c(F)c1
MCC at 24 h [1]: > 50 µM
MIC [2]: 16.9 µM (≈ 5.97 µg/mL)

NC(=O)c1cccnc1OCc1ccc(-c2ccccc2)cn1
MIC [2]: > 50 µM

NC(=O)c1cccnc1OCc1ccc(-c2ccc(OCC3CCCO3)cc2Cl)cn1 (stereo not drawn)
MIC80 (Escherichia coli [4]): > 60 µM
MCC at 24 h [1]: > 50 µM
MIC [2]: 1.1 µM (≈ 0.484 µg/mL)
MIC80 (Streptococcus pneumoniae): > 60 µM
MIC80 (Escherichia coli [7]): > 60 µM
logD [9]: 2.8
MIC80 (Streptococcus pyogenes): > 60 µM
MIC80 (Candida albicans): > 60 µM
MIC (Pseudomonas aeruginosa [14]): > 60 µM
MIC80 (Haemophilus influenzae [15]): > 60 µM
MIC80 (Haemophilus influenzae [16]): > 60 µM
MIC80 (Staphylococcus aureus): > 60 µM
MIC80 (Klebsiella pneumoniae): > 60 µM
MIC80 (Pseudomonas aeruginosa [18]): > 60 µM

COc1ccc(-c2ccc(COc3ncccc3C(N)=O)nc2)c(C(F)(F)F)c1
MIC [2]: 39.7 µM (≈ 16 µg/mL)

COCCOc1ccc(-c2ccc(COc3ncccc3C(=O)NCCO)nc2)c(C)c1
MCC at 24 h [1]: > 50 µM
MIC [2]: 4.5 µM (≈ 1.97 µg/mL)
